Consider 21 compounds from BindingDB's records for doi:10.3109/14756366.2010.543420 (Shanghai Institute of Material Medica, Chinese Academy of …, 2011).

Where only a bound is given, the exact number is not on record here.

For orientation: IC50 means the point on the concentration scale where inhibition reaches its midpoint. Read a low IC50 as greater potency.

Sequence of Beta-secretase 1 (P56817 whole entry): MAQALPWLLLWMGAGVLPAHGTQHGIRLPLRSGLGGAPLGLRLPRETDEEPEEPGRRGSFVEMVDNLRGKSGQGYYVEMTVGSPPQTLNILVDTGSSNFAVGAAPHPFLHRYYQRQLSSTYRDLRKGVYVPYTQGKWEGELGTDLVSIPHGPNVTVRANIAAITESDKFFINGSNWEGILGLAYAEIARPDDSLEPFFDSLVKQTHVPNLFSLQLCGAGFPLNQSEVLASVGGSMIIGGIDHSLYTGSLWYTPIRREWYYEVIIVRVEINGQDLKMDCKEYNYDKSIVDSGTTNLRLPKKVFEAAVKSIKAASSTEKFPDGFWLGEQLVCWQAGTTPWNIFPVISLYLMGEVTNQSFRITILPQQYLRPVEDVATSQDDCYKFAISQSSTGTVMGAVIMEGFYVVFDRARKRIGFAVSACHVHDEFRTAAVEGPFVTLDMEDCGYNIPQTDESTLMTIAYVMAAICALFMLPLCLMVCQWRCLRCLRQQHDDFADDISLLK

The test concerns the target Beta-secretase 1 (Homo sapiens, UniProt P56817). The experiment in a line: Biochemical Assay. As to conditions: pH 4.5; 37 °C. Here is the method:
Briefly, the assay was carried out by incubation of the substrate peptide (5 μM), BACE1 enzyme (550 ng/mL) that was expressed and purified from insect expression system and varied concentrations of compounds at pH 4.5. After 1 h incubation at 37°C, stop buffer (3 M sodium acetate) was introduced into the reaction mixture to stop the reaction. Finally, the fluorescence intensity was measured on a TECAN GENios reader (Tecan) at room temperature with excitation at 420 nm and emission at 530 nm.
Compound `O=C(/C=C/c1ccc(O)cc1O)c1ccc(O)cc1O` [2,2',4,4'-tetrahydroxychalcone] had an IC50 of 0.62 µM. This counts as sub-micromolar.

On to `O=C(/C=C/c1ccccc1[N+](=O)[O-])c1ccc(O)cc1O` [(E)-1-(2,4-dihydroxyphenyl)-3-(2-nitrophenyl)-2-propen-1-one (7)], for which the 50% inhibitory concentration (IC50) was > 60 µM.

As for `O=C(/C=C/c1c(O)cccc1O)c1ccc(O)cc1O` [(E)-1-(2,4-dihydroxyphenyl)-3-(2,6-dihydroxyphenyl)-2-propen-1-one (20)], the IC50 was found to be 1.71 µM.

`O=C(/C=C/c1cc(O)cc(O)c1)c1ccc(O)cc1O` [(E)-1-(2,4-dihydroxyphenyl)-3-(3,5-dihydroxyphenyl)-2-propen-1-one (22)] registered an IC50 of 2.08 µM.

In turn, `O=C(/C=C/c1ccccc1O)c1ccc(O)cc1` [(E)-1-(4-hydroxyphenyl)-3-(2-hydroxyphenyl)-2-propen-1-one (11)] came in with an IC50 of 58.1 µM.

In turn, `O=C(/C=C/c1ccccc1O)c1c(O)cccc1O` [(E)-1-(2,6-dihydroxyphenyl)-3-(2-hydroxyphenyl)-2-propen-1-one (14)] came in with a half-maximal inhibitory concentration (IC50) of 15.6 µM.

Compound `O=C(/C=C/c1ccccc1O)c1cccc(O)c1` [(E)-1-(3-hydroxyphenyl)-3-(2-hydroxyphenyl)-2-propen-1-one (10)] returned an IC50 of 30.4 µM. Compared with the last compound, the IC50 is about 1.9-fold higher.

`O=C(/C=C/c1ccccc1O)c1ccc(O)cc1O` [2,2'',4''-Trihydroxychalcone]: the IC50 was found to be 2.45 µM.

Consider `O=C(/C=C/c1ccccc1O)c1ccccc1O`, for which the concentration for half-maximal inhibition (IC50) is > 60 µM.

`O=C(/C=C/c1ccccc1O)c1cc(O)cc(O)c1` [(E)-1-(3,5-dihydroxyphenyl)-3-(2-hydroxyphenyl)-2-propen-1-one (16)] yielded a half-inhibitory concentration (IC50) of 19.4 µM.

Compound `O=C(/C=C/c1ccccc1O)c1cc(O)ccc1O` registered an IC50 of 41.8 µM. Against the preceding compound, the IC50 is about 2.2-fold higher.

`O=C(/C=C/c1cccc(O)c1)c1ccc(O)cc1O` [(E)-3,2'',4''-Trihydroxychalcone]: it took 8.03 µM to reach half-maximal inhibition (IC50).

Regarding `COc1ccccc1/C=C/C(=O)c1ccc(O)cc1O` [(E)-1-(2,4-dihydroxyphenyl)-3-(2-methoxyphenyl)-2-propen-1-one (4)], 2.63 µM corresponded to half-maximal inhibition (IC50). This IC50 lies about 3.1-fold lower than the previous one.

In the case of `O=C(/C=C/c1ccccc1O)c1cccc(O)c1O` [(E)-1-(2,3-dihydroxyphenyl)-3-(2-hydroxyphenyl)-2-propen-1-one (12)], half-maximal inhibition (IC50) required 21.8 µM.

In turn, `O=C(/C=C/c1ccccc1O)c1ccc(O)c(O)c1` [(E)-1-(3,4-dihydroxyphenyl)-3-(2-hydroxyphenyl)-2-propen-1-one (15)] showed a concentration for half-maximal inhibition (IC50) of 11.8 µM. Compared with the last compound, the IC50 is about 1.8-fold lower.

`O=C(/C=C/c1ccccc1Cl)c1ccc(O)cc1O`: the midpoint of inhibition, the IC50, lay at 11.4 µM. This IC50 and that of the compound before are within 1.5-fold of each other.

Take `O=C(/C=C/c1ccccc1O)c1ccccc1` [Chalcone, 1]: the IC50 is > 60 µM.

The compound `O=C(/C=C/c1ccc(O)c(O)c1)c1ccc(O)cc1O` [(E)-3-(3,4-Dihydroxy-phenyl)-1-(2,4-dihydroxy-phenyl)-propenone] had an IC50 of 2.37 µM.

As for `O=C(/C=C/c1cccc(O)c1O)c1ccc(O)cc1O` [(E)-1-(2,4-dihydroxyphenyl)-3-(2,3-dihydroxyphenyl)-2-propen-1-one (17)], the 50% inhibitory concentration (IC50) was 0.27 µM.

Compound `O=C(/C=C/c1cc(O)ccc1O)c1ccc(O)cc1O` [(E)-1-(2,4-dihydroxyphenyl)-3-(2,5-dihydroxyphenyl)-2-propen-1-one (19)] registered an IC50 of 1.94 µM.

On to `C=CCOc1ccccc1/C=C/C(=O)c1ccc(O)cc1O`, for which the half-inhibitory concentration (IC50) is > 60 µM.
